BindingDB's records for doi:10.1016/j.chembiol.2011.12.010 (Boston College, 2012)

Key:
Assay in all cases: In Vitro Enzyme Assay
[1] = target: Dual specificity calcium/calmodulin-dependent 3',5'-cyclic nucleotide phosphodiesterase 1C (Human, UniProt Q14123)
[2] = target: cGMP-inhibited 3',5'-cyclic phosphodiesterase 3B (Homo sapiens, UniProt Q13370)
[3] = target: Cone cGMP-specific 3',5'-cyclic phosphodiesterase subunit alpha' (Homo sapiens, UniProt P51160)
[4] = target: T1, cGMP-dependent 3',5'-cyclic phosphodiesterase (Rattus norvegicus, UniProt Q01062)
T1 sequence (Q01062 whole entry): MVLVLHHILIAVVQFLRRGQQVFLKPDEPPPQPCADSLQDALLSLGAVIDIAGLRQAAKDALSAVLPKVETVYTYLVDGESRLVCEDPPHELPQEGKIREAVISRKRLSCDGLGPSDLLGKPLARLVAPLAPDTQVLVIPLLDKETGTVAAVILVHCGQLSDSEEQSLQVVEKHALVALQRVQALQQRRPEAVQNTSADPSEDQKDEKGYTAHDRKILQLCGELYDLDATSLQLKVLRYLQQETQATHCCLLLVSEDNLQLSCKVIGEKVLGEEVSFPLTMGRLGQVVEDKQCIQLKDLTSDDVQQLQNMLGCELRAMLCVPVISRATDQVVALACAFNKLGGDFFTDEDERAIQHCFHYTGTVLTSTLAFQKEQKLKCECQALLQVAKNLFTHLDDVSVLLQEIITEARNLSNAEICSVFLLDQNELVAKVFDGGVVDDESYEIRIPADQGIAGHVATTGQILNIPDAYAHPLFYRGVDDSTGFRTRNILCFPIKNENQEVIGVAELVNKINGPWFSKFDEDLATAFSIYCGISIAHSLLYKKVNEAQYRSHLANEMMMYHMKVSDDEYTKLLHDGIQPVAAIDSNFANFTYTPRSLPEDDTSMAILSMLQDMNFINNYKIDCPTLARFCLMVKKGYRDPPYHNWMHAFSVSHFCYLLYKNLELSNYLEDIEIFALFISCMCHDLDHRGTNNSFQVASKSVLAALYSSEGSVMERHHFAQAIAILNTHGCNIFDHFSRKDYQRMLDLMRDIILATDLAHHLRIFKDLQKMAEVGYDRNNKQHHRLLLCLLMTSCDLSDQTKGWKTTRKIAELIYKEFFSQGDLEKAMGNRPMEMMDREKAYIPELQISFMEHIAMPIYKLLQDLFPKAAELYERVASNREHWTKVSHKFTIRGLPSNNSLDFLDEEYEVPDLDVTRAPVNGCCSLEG

[5] = target: Dual 3',5'-cyclic-AMP and -GMP phosphodiesterase 11A (Homo sapiens, UniProt Q9HCR9)
Dual 3',5'-cyclic-AMP and -GMP phosphodiesterase 11A, sequence (Q9HCR9 whole entry): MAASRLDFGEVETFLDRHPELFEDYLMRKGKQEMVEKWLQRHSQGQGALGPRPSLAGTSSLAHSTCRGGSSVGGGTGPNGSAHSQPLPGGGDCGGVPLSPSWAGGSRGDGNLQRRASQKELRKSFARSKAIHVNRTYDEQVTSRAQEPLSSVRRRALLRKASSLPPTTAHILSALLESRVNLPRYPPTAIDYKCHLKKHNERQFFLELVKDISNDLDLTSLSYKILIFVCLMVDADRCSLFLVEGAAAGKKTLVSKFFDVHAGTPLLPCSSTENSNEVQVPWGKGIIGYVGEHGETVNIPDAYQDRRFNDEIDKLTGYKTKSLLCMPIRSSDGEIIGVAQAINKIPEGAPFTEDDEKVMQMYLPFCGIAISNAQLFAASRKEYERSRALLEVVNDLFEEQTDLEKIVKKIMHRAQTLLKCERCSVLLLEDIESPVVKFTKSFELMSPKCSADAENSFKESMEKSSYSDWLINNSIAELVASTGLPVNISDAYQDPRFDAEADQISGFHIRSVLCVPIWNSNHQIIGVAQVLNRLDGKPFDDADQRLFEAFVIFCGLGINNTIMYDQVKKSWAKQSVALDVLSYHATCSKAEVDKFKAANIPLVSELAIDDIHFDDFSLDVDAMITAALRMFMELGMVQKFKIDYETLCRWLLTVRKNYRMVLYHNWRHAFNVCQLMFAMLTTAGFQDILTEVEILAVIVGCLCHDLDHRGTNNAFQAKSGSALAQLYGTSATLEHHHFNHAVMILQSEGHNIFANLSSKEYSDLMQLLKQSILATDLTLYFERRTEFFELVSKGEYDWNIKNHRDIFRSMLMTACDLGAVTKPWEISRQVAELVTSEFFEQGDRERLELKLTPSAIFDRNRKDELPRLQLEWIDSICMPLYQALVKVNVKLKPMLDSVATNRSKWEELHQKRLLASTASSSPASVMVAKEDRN

[6] = target: High affinity cAMP-specific 3',5'-cyclic phosphodiesterase 7A (Homo sapiens, UniProt Q13946)
[7] = target: cAMP and cAMP-inhibited cGMP 3',5'-cyclic phosphodiesterase 10A (Homo sapiens, UniProt Q9Y233)
cAMP and cAMP-inhibited cGMP 3',5'-cyclic phosphodiesterase 10A, sequence (Q9Y233 whole entry): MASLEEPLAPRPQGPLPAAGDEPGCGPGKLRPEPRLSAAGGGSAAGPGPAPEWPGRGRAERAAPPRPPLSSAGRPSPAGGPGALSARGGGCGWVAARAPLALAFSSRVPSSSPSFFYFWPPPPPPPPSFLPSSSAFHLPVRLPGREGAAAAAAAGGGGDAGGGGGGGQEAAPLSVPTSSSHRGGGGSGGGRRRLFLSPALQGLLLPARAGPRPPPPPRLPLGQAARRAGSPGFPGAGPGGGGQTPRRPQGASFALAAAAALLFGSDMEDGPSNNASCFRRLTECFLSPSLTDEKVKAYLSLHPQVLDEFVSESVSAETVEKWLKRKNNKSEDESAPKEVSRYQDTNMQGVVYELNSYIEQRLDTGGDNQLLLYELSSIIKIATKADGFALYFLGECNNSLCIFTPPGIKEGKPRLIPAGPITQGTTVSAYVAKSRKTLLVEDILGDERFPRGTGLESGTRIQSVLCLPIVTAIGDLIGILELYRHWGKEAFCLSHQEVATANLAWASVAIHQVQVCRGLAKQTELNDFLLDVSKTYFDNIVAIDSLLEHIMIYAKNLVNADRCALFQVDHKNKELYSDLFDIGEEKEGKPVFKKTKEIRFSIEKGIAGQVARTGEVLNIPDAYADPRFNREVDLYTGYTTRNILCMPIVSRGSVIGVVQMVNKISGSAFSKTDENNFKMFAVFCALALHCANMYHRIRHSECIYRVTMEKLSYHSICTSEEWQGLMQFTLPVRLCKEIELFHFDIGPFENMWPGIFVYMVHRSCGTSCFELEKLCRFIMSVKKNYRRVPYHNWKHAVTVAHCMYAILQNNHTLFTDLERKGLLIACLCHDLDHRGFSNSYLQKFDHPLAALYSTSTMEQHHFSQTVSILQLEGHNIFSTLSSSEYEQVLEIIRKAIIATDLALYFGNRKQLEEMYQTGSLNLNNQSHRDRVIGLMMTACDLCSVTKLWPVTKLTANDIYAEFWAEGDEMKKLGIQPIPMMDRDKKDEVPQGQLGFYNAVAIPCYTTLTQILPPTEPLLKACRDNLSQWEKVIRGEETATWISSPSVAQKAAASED

Dual specificity calcium/calmodulin-dependent 3',5'-cyclic nucleotide phosphodiesterase 1C, sequence (Q14123 whole entry): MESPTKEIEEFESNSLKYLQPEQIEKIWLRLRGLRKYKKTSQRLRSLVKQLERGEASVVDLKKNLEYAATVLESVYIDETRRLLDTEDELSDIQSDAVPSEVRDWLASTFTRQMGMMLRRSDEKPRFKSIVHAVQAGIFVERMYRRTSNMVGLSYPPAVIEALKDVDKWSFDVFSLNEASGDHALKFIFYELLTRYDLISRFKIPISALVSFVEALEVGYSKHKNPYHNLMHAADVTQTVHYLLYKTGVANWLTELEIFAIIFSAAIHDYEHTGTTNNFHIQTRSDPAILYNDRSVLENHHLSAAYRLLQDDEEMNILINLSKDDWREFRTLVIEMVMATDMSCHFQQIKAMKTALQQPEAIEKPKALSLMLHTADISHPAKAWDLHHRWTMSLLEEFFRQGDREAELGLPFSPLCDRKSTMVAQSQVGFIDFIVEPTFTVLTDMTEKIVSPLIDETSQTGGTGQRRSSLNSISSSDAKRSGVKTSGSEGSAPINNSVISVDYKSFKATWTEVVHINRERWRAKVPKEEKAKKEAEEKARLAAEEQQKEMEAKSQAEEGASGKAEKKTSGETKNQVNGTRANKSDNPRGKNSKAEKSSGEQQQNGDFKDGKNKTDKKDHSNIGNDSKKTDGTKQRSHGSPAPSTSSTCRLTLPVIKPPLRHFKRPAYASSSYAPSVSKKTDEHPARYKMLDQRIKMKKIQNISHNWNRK
cGMP-inhibited 3',5'-cyclic phosphodiesterase 3B, sequence (Q13370 whole entry): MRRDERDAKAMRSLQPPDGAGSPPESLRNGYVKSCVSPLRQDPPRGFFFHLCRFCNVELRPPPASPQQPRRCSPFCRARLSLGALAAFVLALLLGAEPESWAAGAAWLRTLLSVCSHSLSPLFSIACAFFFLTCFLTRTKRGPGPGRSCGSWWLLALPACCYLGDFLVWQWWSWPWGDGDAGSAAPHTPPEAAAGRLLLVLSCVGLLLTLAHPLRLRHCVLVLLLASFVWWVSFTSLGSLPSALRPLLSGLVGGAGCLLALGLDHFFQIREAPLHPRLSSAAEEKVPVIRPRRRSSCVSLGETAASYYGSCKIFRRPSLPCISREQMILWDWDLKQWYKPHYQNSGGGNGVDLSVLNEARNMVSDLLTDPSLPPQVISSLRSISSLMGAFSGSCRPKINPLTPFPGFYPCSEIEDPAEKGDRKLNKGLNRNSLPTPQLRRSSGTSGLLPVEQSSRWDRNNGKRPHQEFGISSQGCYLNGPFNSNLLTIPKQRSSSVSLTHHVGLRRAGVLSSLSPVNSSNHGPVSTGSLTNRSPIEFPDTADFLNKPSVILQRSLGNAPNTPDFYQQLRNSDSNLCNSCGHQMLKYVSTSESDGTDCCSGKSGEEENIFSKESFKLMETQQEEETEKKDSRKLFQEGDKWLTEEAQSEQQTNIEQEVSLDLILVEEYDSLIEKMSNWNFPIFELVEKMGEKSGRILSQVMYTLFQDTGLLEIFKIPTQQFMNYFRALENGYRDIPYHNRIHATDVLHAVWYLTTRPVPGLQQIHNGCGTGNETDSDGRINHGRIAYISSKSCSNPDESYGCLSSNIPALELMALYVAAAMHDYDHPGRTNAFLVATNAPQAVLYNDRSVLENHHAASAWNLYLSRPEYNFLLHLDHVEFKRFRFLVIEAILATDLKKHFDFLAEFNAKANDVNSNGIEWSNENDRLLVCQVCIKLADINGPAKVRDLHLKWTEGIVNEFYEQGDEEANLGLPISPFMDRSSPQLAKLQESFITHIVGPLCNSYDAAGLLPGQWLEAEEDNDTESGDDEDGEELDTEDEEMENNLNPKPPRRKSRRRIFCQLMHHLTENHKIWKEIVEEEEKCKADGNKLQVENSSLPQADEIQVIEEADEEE
Cone cGMP-specific 3',5'-cyclic phosphodiesterase subunit alpha', sequence (P51160 whole entry): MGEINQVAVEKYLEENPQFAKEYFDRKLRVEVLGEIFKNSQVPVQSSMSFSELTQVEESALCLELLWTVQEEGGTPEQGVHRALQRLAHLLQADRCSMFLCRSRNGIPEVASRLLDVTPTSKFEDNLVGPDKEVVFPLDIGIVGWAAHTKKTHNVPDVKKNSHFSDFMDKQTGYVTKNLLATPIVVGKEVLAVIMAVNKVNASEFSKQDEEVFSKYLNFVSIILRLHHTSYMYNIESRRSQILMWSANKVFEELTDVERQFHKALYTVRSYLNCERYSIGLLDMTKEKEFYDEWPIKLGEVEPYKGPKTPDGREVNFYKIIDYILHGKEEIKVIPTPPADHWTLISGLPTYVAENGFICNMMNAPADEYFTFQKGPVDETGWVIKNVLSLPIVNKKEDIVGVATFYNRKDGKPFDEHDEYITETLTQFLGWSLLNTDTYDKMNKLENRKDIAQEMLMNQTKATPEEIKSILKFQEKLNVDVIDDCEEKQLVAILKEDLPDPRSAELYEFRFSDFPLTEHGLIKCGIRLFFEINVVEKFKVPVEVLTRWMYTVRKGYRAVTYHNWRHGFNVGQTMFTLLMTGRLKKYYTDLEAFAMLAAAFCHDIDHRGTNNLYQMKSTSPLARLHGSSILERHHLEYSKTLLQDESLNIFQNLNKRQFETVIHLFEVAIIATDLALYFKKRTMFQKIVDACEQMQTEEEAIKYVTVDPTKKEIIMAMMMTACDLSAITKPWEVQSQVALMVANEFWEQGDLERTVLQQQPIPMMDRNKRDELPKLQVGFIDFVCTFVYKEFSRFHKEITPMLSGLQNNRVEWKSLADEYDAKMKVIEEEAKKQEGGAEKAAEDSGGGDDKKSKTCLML

| Structure (SMILES) | IC50 [1] | IC50 [2] | IC50 [3] | IC50 [4] | IC50 [5] | IC50 [6] | IC50 [7] |
| --- | --- | --- | --- | --- | --- | --- | --- |
| Cc1ccccc1Nc1ncnc2c1c(-c1ccccc1)cn2-c1ccc(F)cc1 | > 100 µM | > 100 µM | – | – | – | – | – |
| CCN(CC)C(=O)c1cc(-c2cccs2)nc2c1c(C)nn2-c1ccccc1C [BC11-15] | > 100 µM | > 100 µM | – | – | – | – | – |
| CCCCSc1nc2c(c(=O)n1-c1ccccc1)SCC2 [BC11-38-1] | – | > 100 µM | – | – | – | – | – |
| CCC(C)Sc1nc2c(c(=O)n1-c1ccccc1)SCC2 (stereo not given) [BC11-38-2] | > 100 µM | > 100 µM | 51.2 µM | 18.4 µM | – | – | – |
| CCCSc1nc2c(c(=O)n1-c1ccc(C)cc1)SCC2 [BC11-38-3] | > 100 µM | > 100 µM | – | – | 7.5 µM | 21.3 µM | – |
| CCCSc1nc2c(c(=O)n1-c1ccccc1OC)SCC2 [BC11-38-4] | > 100 µM | > 100 µM | – | – | 9.9 µM | – | 5.8 µM |
| CCCSc1nc2c(c(=O)n1-c1ccccc1)SCC2 [BC11-38] | > 100 µM | > 100 µM | – | – | – | – | – |
| COc1ccc2c(c1)sc1nc(=O)n(Cc3ccccc3)c(=O)n12 [US9173884, BC11-19-1] | – | – | – | – | 2 µM | – | – |
